# In the supplement of paper PMC10307832:
# What was measured:
# Assay in all cases: relative viability (nuclei count vs DMSO), 5 days (fraction); higher = more cells survive
# HCC-366 = tested on: HCC-366
# In short: (§1)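 Medians of duplicate plates are given as relative viability. That measure is the nuclei count in treated wells divided by the count in vehicle wells. Counts were taken on 4× images of lung cancer cell lines in 1536-well plates, 5 days after pin-tool dosing the day after seeding with one drug alone or a fixed anchor-drug dose plus five library-drug doses (not always all listed) in √10 steps.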
# NCI-H2405 = tested on: NCI-H2405
# In short: as §1
# BEN = tested on: BEN
# In short: as §1
# NCI-H1734 = tested on: NCI-H1734
# In short: as §1
# NCI-H2087 = tested on: NCI-H2087
# In short: as §1
# NCI-H2009 = tested on: NCI-H2009
# In short: as §1
# SK-LU-1 = tested on: SK-LU-1
# In short: as §1
# HARA = tested on: HARA
# In short: as §1
# NCI-H1437 = tested on: NCI-H1437
# In short: as §1
# NCI-H522 = tested on: NCI-H522
# In short: as §1
# SK-MES-1 = tested on: SK-MES-1
# In short: as §1
# NCI-H1993 = tested on: NCI-H1993
# In short: as §1
# NCI-H1355 = tested on: NCI-H1355
# In short: as §1
# NCI-H2170 = tested on: NCI-H2170
# In short: as §1
# EKVX = tested on: EKVX
# In short: as §1
# NCI-H2342 = tested on: NCI-H2342
# In short: as §1
# NCI-H1395 = tested on: NCI-H1395
# In short: as §1
# LOU-NH91 = tested on: LOU-NH91
# In short: as §1
# HCC-827 = tested on: HCC-827
# In short: as §1
# NCI-H647 = tested on: NCI-H647
# In short: as §1
# NCI-H661 = tested on: NCI-H661
# In short: as §1
structure (smiles),measurement,setting,value
Nc1ccn([C@@H]2O[C@H](CO)[C@@H](O)[C@@H]2O)c(=O)n1 [Cytarabine] + O=C(CCCCCCC(=O)Nc1ccccc1)NO [Vorinostat] (partner 1 µM),relative viability,HCC-366; first compound 0.005 µM,0.31
same,relative viability,HCC-366; first compound 0.01581 µM,0.347
same,relative viability,HCC-366; first compound 0.05 µM,0.301
same,relative viability,HCC-366; first compound 0.1581 µM,0.087
same,relative viability,HCC-366; first compound 0.5 µM,0.0576
same,relative viability,NCI-H2405; first compound 0.005 µM,1.02
same,relative viability,NCI-H2405; first compound 0.01581 µM,0.748
same,relative viability,NCI-H2405; first compound 0.05 µM,0.624
same,relative viability,NCI-H2405; first compound 0.1581 µM,0.43
same,relative viability,NCI-H2405; first compound 0.5 µM,0.374
same,relative viability,BEN; first compound 0.005 µM,0.553
same,relative viability,BEN; first compound 0.01581 µM,0.56
same,relative viability,BEN; first compound 0.05 µM,0.447
same,relative viability,BEN; first compound 0.1581 µM,0.394
same,relative viability,BEN; first compound 0.5 µM,0.364
same,relative viability,NCI-H1734; first compound 0.005 µM,0.493
same,relative viability,NCI-H1734; first compound 0.01581 µM,0.361
same,relative viability,NCI-H1734; first compound 0.05 µM,0.317
same,relative viability,NCI-H1734; first compound 0.1581 µM,0.138
same,relative viability,NCI-H1734; first compound 0.5 µM,0.125
same,relative viability,NCI-H2087; first compound 0.005 µM,0.416
same,relative viability,NCI-H2087; first compound 0.01581 µM,0.961
same,relative viability,NCI-H2087; first compound 0.05 µM,0.598
same,relative viability,NCI-H2087; first compound 0.1581 µM,0.288
same,relative viability,NCI-H2087; first compound 0.5 µM,0.308
same,relative viability,NCI-H2009; first compound 0.005 µM,0.751
same,relative viability,NCI-H2009; first compound 0.01581 µM,0.698
same,relative viability,NCI-H2009; first compound 0.05 µM,0.71
same,relative viability,NCI-H2009; first compound 0.1581 µM,0.52
same,relative viability,NCI-H2009; first compound 0.5 µM,0.198
same,relative viability,SK-LU-1; first compound 0.005 µM,0.509
same,relative viability,SK-LU-1; first compound 0.01581 µM,0.665
same,relative viability,SK-LU-1; first compound 0.05 µM,0.632
same,relative viability,SK-LU-1; first compound 0.1581 µM,0.479
same,relative viability,SK-LU-1; first compound 0.5 µM,0.422
same,relative viability,HARA; first compound 0.005 µM,0.694
same,relative viability,HARA; first compound 0.01581 µM,0.44
same,relative viability,HARA; first compound 0.05 µM,0.52
same,relative viability,HARA; first compound 0.1581 µM,0.458
same,relative viability,HARA; first compound 0.5 µM,0.347
same,relative viability,NCI-H1437; first compound 0.005 µM,0.889
same,relative viability,NCI-H1437; first compound 0.01581 µM,0.77
same,relative viability,NCI-H1437; first compound 0.05 µM,0.605
same,relative viability,NCI-H1437; first compound 0.1581 µM,0.423
same,relative viability,NCI-H1437; first compound 0.5 µM,0.303
same,relative viability,NCI-H522; first compound 0.005 µM,0.993
same,relative viability,NCI-H522; first compound 0.01581 µM,0.837
same,relative viability,NCI-H522; first compound 0.05 µM,0.694
same,relative viability,NCI-H522; first compound 0.1581 µM,0.615
same,relative viability,NCI-H522; first compound 0.5 µM,0.563
same,relative viability,SK-MES-1; first compound 0.005 µM,0.851
same,relative viability,SK-MES-1; first compound 0.01581 µM,0.778
same,relative viability,SK-MES-1; first compound 0.05 µM,0.6
same,relative viability,SK-MES-1; first compound 0.1581 µM,0.283
same,relative viability,SK-MES-1; first compound 0.5 µM,0.233
same,relative viability,NCI-H1993; first compound 0.005 µM,0.865
same,relative viability,NCI-H1993; first compound 0.01581 µM,0.556
same,relative viability,NCI-H1993; first compound 0.05 µM,0.751
same,relative viability,NCI-H1993; first compound 0.1581 µM,0.503
same,relative viability,NCI-H1993; first compound 0.5 µM,0.602
same,relative viability,NCI-H1355; first compound 0.005 µM,0.578
same,relative viability,NCI-H1355; first compound 0.01581 µM,0.638
same,relative viability,NCI-H1355; first compound 0.05 µM,0.64
same,relative viability,NCI-H1355; first compound 0.1581 µM,0.458
same,relative viability,NCI-H1355; first compound 0.5 µM,0.299
same,relative viability,NCI-H2170; first compound 0.005 µM,0.823
same,relative viability,NCI-H2170; first compound 0.01581 µM,0.65
same,relative viability,NCI-H2170; first compound 0.05 µM,0.621
same,relative viability,NCI-H2170; first compound 0.1581 µM,0.4
same,relative viability,NCI-H2170; first compound 0.5 µM,0.314
same,relative viability,EKVX; first compound 0.005 µM,0.706
same,relative viability,EKVX; first compound 0.01581 µM,0.7
same,relative viability,EKVX; first compound 0.05 µM,0.636
same,relative viability,EKVX; first compound 0.1581 µM,0.494
same,relative viability,EKVX; first compound 0.5 µM,0.414
same,relative viability,NCI-H2342; first compound 0.005 µM,0.718
same,relative viability,NCI-H2342; first compound 0.01581 µM,0.698
same,relative viability,NCI-H2342; first compound 0.05 µM,0.657
same,relative viability,NCI-H2342; first compound 0.1581 µM,0.52
same,relative viability,NCI-H2342; first compound 0.5 µM,0.465
same,relative viability,NCI-H1395; first compound 0.005 µM,0.692
same,relative viability,NCI-H1395; first compound 0.01581 µM,0.586
same,relative viability,NCI-H1395; first compound 0.05 µM,0.5
same,relative viability,NCI-H1395; first compound 0.1581 µM,0.357
same,relative viability,NCI-H1395; first compound 0.5 µM,0.349
same,relative viability,LOU-NH91; first compound 0.005 µM,0.857
same,relative viability,LOU-NH91; first compound 0.01581 µM,0.917
same,relative viability,LOU-NH91; first compound 0.05 µM,0.806
same,relative viability,LOU-NH91; first compound 0.1581 µM,0.772
same,relative viability,LOU-NH91; first compound 0.5 µM,0.676
same,relative viability,HCC-827; first compound 0.005 µM,0.539
same,relative viability,HCC-827; first compound 0.01581 µM,0.331
same,relative viability,HCC-827; first compound 0.05 µM,0.169
same,relative viability,HCC-827; first compound 0.1581 µM,0.145
same,relative viability,HCC-827; first compound 0.5 µM,0.141
same,relative viability,NCI-H647; first compound 0.005 µM,0.284
same,relative viability,NCI-H647; first compound 0.01581 µM,0.294
same,relative viability,NCI-H647; first compound 0.05 µM,0.149
same,relative viability,NCI-H647; first compound 0.1581 µM,0.0878
same,relative viability,NCI-H647; first compound 0.5 µM,0.0778
same,relative viability,NCI-H661; first compound 0.005 µM,0.751
same,relative viability,NCI-H661; first compound 0.01581 µM,0.698
same,relative viability,NCI-H661; first compound 0.05 µM,0.6
same,relative viability,NCI-H661; first compound 0.1581 µM,0.513
same,relative viability,NCI-H661; first compound 0.5 µM,0.456
